What follows are compounds tested against B-Raf (V600E) (Homo sapiens (Human), UniProt P15056, V600E) (assay: Raf IC50 assay, time-resolved fluorescence energy transfer, B-Raf (V600E)). Details: 0.1 mM ATP; read-out: IC50 (nM) B_Raf^V600E.
Format: biochemical
Protocol: The enzyme was incubated with the compounds at room temperature for 60 minutes and the reactions were initiated by the addition of ATP and GST-MEK1. After reaction at room temperature for 60 minutes, an equal volume of stop/detection solution was added according to the manufacture's instruction (CisBio Bioassays). […] The IC50 for each compound was derived from fitting the dose-response % inhibition data to the four-parameter logistic model by Graphpad Prism software.

Sequence of B-Raf (V600E) (P15056 whole entry V600E): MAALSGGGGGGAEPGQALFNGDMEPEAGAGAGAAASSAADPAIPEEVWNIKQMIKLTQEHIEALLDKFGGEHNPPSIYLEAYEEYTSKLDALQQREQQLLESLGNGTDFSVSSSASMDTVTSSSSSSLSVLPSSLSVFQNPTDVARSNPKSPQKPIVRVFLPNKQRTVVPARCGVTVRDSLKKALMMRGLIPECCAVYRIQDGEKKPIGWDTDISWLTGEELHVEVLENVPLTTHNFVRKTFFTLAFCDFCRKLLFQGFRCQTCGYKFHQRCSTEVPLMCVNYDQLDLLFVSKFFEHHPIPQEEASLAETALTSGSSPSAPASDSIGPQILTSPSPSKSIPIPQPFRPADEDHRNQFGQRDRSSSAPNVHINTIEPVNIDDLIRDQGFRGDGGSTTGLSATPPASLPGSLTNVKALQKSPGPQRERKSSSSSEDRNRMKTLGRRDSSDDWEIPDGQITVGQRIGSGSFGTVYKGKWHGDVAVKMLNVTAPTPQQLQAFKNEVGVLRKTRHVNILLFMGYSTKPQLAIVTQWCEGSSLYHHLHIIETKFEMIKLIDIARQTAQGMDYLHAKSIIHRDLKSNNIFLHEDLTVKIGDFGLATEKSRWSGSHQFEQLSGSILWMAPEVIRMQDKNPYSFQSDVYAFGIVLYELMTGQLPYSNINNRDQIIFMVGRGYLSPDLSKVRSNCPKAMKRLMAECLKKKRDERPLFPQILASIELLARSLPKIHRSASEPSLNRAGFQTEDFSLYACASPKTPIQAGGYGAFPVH

| Structure (SMILES) | IC50 [nM] |
| --- | --- |
| COc1ccc(NC(=O)N[C@@H]2[C@H]3Oc4ccc(Oc5ccnc6c5CCC(=O)N6)cc4[C@@H]23)c(Cl)c1 [Compound 1.4] | 1.8 |
| COc1ccc(Cl)c(NC(=O)N[C@@H]2[C@H]3Oc4ccc(Oc5ccnc6c5CCC(=O)N6)cc4[C@@H]23)c1 [Compound 1.5] | 2.2 |
| O=C1CCc2c(Oc3ccc4c(c3)[C@H]3[C@H](NC(=O)Nc5cc(Br)ccc5Cl)[C@H]3O4)ccnc2N1 [Compound 1.8] | 8.7 |
| O=C1CCc2c(Oc3ccc4c(c3)[C@H]3[C@H](NC(=O)Nc5ccc(Br)cc5Cl)[C@H]3O4)ccnc2N1 [Compound 1.10] | 6.3 |
| O=C1CCc2c(Oc3ccc4c(c3)[C@H]3[C@H](NC(=O)Nc5cccc([N+](=O)[O-])c5)[C@H]3O4)ccnc2N1 [Compound 1.13] | 1.8 |
| COc1ccc(NC(=O)N[C@@H]2[C@H]3Oc4ccc(Oc5ccnc6c5CCC(=O)N6)cc4[C@@H]23)cc1OC [Compound 1.15] | 2.3 |
| O=C1CCc2c(Oc3ccc4c(c3)[C@H]3[C@H](NC(=O)Nc5ccc6c(c5)CCC6)[C@H]3O4)ccnc2N1 [Compound 1.16] | 2.6 |
| COc1cc(NC(=O)N[C@@H]2[C@H]3Oc4ccc(Oc5ccnc6c5CCC(=O)N6)cc4[C@@H]23)cc(OC)c1 [Compound 1.17] | 1.5 |
| CC(C)(C)c1ccc(NC(=O)N[C@@H]2[C@H]3Oc4ccc(Oc5ccnc6c5CCC(=O)N6)cc4[C@@H]23)cc1 [Compound 1.18] | 16 |
| Cc1cccc(Cl)c1NC(=O)N[C@@H]1[C@H]2Oc3ccc(Oc4ccnc5c4CCC(=O)N5)cc3[C@@H]12 [Compound 1.19] | 5.1 |
| CN(C)Cc1ccc(NC(=O)N[C@@H]2[C@H]3Oc4ccc(Oc5ccnc6c5CCC(=O)N6)cc4[C@@H]23)cc1 [Compound 1.26] | 2680 |
| COc1cc(NC(=O)N[C@@H]2[C@H]3Oc4ccc(Oc5ccnc6c5CCC(=O)N6)cc4[C@@H]23)c(Cl)cc1Cl [Compound 1.27] | 11 |
| O=C1CCc2c(Oc3ccc4c(c3)[C@H]3[C@H](NC(=O)Nc5ccc(C(F)(F)F)cc5)[C@H]3O4)ccnc2N1 [Compound 1.29] | 6.9 |
| O=C1CCc2c(Oc3ccc4c(c3)[C@H]3[C@H](NC(=O)Nc5ccccc5C(F)(F)F)[C@H]3O4)ccnc2N1 [Compound 1.30] | 3 |
| O=C1CCc2c(Oc3ccc4c(c3)[C@H]3[C@H](NC(=O)Nc5ccncn5)[C@H]3O4)ccnc2N1 [Compound 1.36] | 1.3 |
| O=C1CCc2c(Oc3ccc4c(c3)[C@H]3[C@H](NC(=O)Nc5cc(Cl)ccn5)[C@H]3O4)ccnc2N1 [Compound 1.37] | 0.85 |
| O=C1CCc2c(Oc3ccc4c(c3)[C@H]3[C@H](NC(=O)Nc5ccc(C(F)(F)F)cn5)[C@H]3O4)ccnc2N1 [Compound 1.38] | 4 |
| Cc1ccncc1NC(=O)N[C@@H]1[C@H]2Oc3ccc(Oc4ccnc5c4CCC(=O)N5)cc3[C@@H]12 [Compound 1.39] | 2.6 |
| COc1ccc(NC(=O)N[C@@H]2[C@H]3Oc4ccc(Oc5ccnc6c5CCC(=O)N6)cc4[C@@H]23)cc1 [Compound 1.50] | 0.8 |
| O=C1CCc2c(Oc3ccc4c(c3)[C@H]3[C@H](NC(=O)NC5CCCC5)[C@H]3O4)ccnc2N1 [Compound 1.51] | 0.59 |
| O=C1CCc2c(Oc3ccc4c(c3)[C@H]3[C@H](NC(=O)NCc5cccc(C(F)(F)F)c5)[C@H]3O4)ccnc2N1 [Compound 1.54] | 1.9 |

| Structure (SMILES) | IC50 [nM] |
| --- | --- |
| O=C1CCc2c(Oc3ccc4c(c3)[C@H]3[C@H](NC(=O)NCc5ccc(C(F)(F)F)cc5)[C@H]3O4)ccnc2N1 [Compound 1.56] | 158 |
| CN1CCN(Cc2ccc(NC(=O)N[C@@H]3[C@H]4Oc5ccc(Oc6ccnc7c6CCC(=O)N7)cc5[C@@H]34)cc2)CC1 [Compound 1.63] | > 5000 |
| O=C1CCc2c(Oc3ccc4c(c3)[C@H]3[C@H](NC(=O)Nc5ccc(C(F)(F)F)c(F)c5)[C@H]3O4)ccnc2N1 [Compound 1.64] | 27 |
| O=C1CCc2c(Oc3ccc4c(c3)[C@H]3[C@H](NC(=O)Nc5cc(C(F)(F)F)cc(C(F)(F)F)c5)[C@H]3O4)ccnc2N1 [Compound 1.65] | 116 |
| CN1CCC(NC(=O)N[C@@H]2[C@H]3Oc4ccc(Oc5ccnc6c5CCC(=O)N6)cc4[C@@H]23)CC1 [Compound 1.68] | 20 |
| O=C1CCc2c(Oc3ccc4c(c3)[C@H]3[C@H](NC(=O)NC5CC5)[C@H]3O4)ccnc2N1 [Compound 1.69] | 30 |
| O=C1CCc2c(Oc3ccc4c(c3)[C@@H]3[C@@H](NC(=O)Nc5cc(C(F)(F)F)ccn5)[C@@H]3O4)ccnc2N1 [Compound 1.72] | 1.9 |
| CCN1CCN(Cc2ccc(NC(=O)N[C@@H]3[C@H]4Oc5ccc(Oc6ccnc7c6CCC(=O)N7)cc5[C@@H]34)cc2F)CC1 [Compound 1.74] | 821 |
| CCCCCCCCCCNC(=O)N[C@@H]1[C@H]2Oc3ccc(Oc4ccnc5c4CCC(=O)N5)cc3[C@@H]12 [Compound 1.85] | 129 |
| CN1CCN(c2ccc(NC(=O)N[C@@H]3[C@H]4Oc5ccc(Oc6ccnc7c6CCC(=O)N7)cc5[C@@H]34)cc2C(F)(F)F)CC1 [Compound 1.86, 1-(4-(4-methylpiperazin-1-yl)-3-(trifluoromethyl)phenyl)-3-((1S,1aS,6bS)-5-((7-oxo-5,6,7,8-tetrahydro-1,8-naphthyridin-4-yl)oxy)-1a,6b-dihydro-1H-cyclopropa[b]benzofuran-1-yl)urea] | 183 |
| CCN1CCN(c2ccc(NC(=O)N[C@@H]3[C@H]4Oc5ccc(Oc6ccnc7c6CCC(=O)N7)cc5[C@@H]34)cc2C(F)(F)F)CC1 [Compound 1.87] | 227 |
| O=C(Nc1ccc(F)cc1F)N[C@@H]1[C@H]2Oc3ccc(Oc4ccncn4)cc3[C@@H]12 [Compound 2.1, 1-(2,4-difluorophenyl)-3-((1S,1aS,6bS)-5-(pyrimidin-4-yloxy)-1a,6b-dihydro-1H-cyclopropa[b]benzofuran-1-yl)urea] | 1100 |
| O=C(Nc1ccc(F)c(F)c1)N[C@@H]1[C@H]2Oc3ccc(Oc4ccncn4)cc3[C@@H]12 [Compound 2.2] | 111 |
| O=C(Nc1ccc(F)c(C(F)(F)F)c1)N[C@@H]1[C@H]2Oc3ccc(Oc4ccncc4)cc3[C@@H]12 [Compound 2.9] | 24 |
| O=C(Nc1cc(F)c(F)cc1F)N[C@@H]1[C@H]2Oc3ccc(Oc4ccncc4)cc3[C@@H]12 [Compound 2.10] | 50 |
| O=C(Nc1cccc(C(F)(F)F)c1)N[C@@H]1[C@H]2Oc3ccc(Oc4ccncc4)cc3[C@@H]12 [Compound 2.11] | 58 |
| O=C(Nc1ccc(F)c(C(F)(F)F)c1)N[C@@H]1[C@H]2Oc3ccc(Oc4ncnc5[nH]cnc45)cc3[C@@H]12 [Compound 2.12, 1-((1S,1aS,6bS)-5-((9H-purin-6-yl)oxy)-1a,6b-dihydro-1H-cyclopropa[b]benzofuran-1-yl)-3-(4-fluoro-3-(trifluoromethyl)phenyl)urea] | 10 |
| O=C(Nc1ccc(F)cc1F)N[C@@H]1[C@H]2Oc3ccc(Oc4ncnc5[nH]cnc45)cc3[C@@H]12 [Compound 2.13] | 24 |
| Nc1cc(Oc2ccc3c(c2)[C@H]2[C@H](NC(=O)Nc4ccc(F)cc4F)[C@H]2O3)ccn1 [Compound 2.14, 1-((1S,1aS,6bS)-5-((2-aminopyridin-4-yl)oxy)-1a,6b-dihydro-1H-cyclopropa[b]benzofuran-1-yl)-3-(2,4-difluorophenyl)urea] | 36 |
| CNC(=O)c1cc(Oc2ccc3c(c2)[C@H]2[C@H](NC(=O)Nc4ccc(Cl)c(C(F)(F)F)c4)[C@H]2O3)ccn1 [Compound 2.16] | 88 |

Each compound was assayed on A375 (assay: Anti-proliferative activity EC50 assay (CellTiter-Glo) in A375). Details: Homo sapiens, A-375, 72 h; 3-day exposure; read-out: Cell Proliferation EC50 (nM) A375.
Format: cell-based
Protocol: The growth-inhibitory activity of compounds in A375 and p61-A375, was determined using CellTiter-Glo luminescent cell viability assay (Promega). The 2,000 cells were seeded per well of a 96-well plate to ensure logarithmic growth could occur over the 3 days treatment period. Cells were left to attach for 16 hours, cells were treated in duplicate with a 10-point dilution series. Following a 3-day exposure to compounds disclosed herein, a volume of CellTiter-Glo reagent equal to the volume of cell culture medium present in each well was added. Mixture was mixed on an orbital shaker for 2 minutes to allow cell lysis, followed by 10 minutes incubation at room temperature to allow stabilization of luminescent signal, which corresponded to quantitation of ATP and thus the quantitation of metabolically active cells. Luminescent signal was measured using Pherastar FS reader (BMG Labtech).
EC50 values for growth inhibition were calculated by fitting dose-dependent data to the four-parameter logistic model using GraphPad Prism software.

| Structure (SMILES) | EC50 [nM] |
| --- | --- |
| Cc1cccc(Cl)c1NC(=O)N[C@@H]1[C@H]2Oc3ccc(Oc4ccnc5c4CCC(=O)N5)cc3[C@@H]12 [Compound 1.19] | 503 |
| O=C1CCc2c(Oc3ccc4c(c3)[C@H]3[C@H](NC(=O)Nc5ccc(C(F)(F)F)cc5)[C@H]3O4)ccnc2N1 [Compound 1.29] | 222 |
| O=C1CCc2c(Oc3ccc4c(c3)[C@H]3[C@H](NC(=O)Nc5ccccc5C(F)(F)F)[C@H]3O4)ccnc2N1 [Compound 1.30] | 583 |
| O=C1CCc2c(Oc3ccc4c(c3)[C@H]3[C@H](NC(=O)NC5CCCC5)[C@H]3O4)ccnc2N1 [Compound 1.51] | 273 |
| O=C1CCc2c(Oc3ccc4c(c3)[C@H]3[C@H](NC(=O)NCc5cccc(C(F)(F)F)c5)[C@H]3O4)ccnc2N1 [Compound 1.54] | 2700 |

— patent US9670203B2 (BeiGene, LTD., priority 2013, dated 2017)
